Experimental findings from US20230295197A1, “STAT5 and STAT6 Degraders and Uses Thereof” (REGENTS OF THE UNIVERSITY OF MICHICAN, priority 2022, published 2023) are described below.

The test system of test [1] is STAT5. As to the kind of experiment: Immunoblotting (Western blot) analysis of STAT5 degradation efficiency of degraders in treated cells. It counts as cell-based. The method in brief:
(§1)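 Each data point uses roughly one million cells dosed as indicated; pellets are lysed on ice, freeze-thawed, and clarified. Reduced, denatured samples (95 °C, 5 min) run on SDS gels, then membranes receive rabbit mAbs to STAT5 or STAT6 plus mouse anti-GAPDH overnight, followed by dye-labelled secondaries for fluorescence imaging.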
Background: Immunoblotting shows a protein as a band on a membrane.

Test [2] addresses T1, STAT6 (Homo sapiens, UniProt P42226).
T1 construct: endogenous in cells; host or cells: MOLM-16, KU-812, SKNO1, MB231, L1236
T1 sequence (P42226 1-847): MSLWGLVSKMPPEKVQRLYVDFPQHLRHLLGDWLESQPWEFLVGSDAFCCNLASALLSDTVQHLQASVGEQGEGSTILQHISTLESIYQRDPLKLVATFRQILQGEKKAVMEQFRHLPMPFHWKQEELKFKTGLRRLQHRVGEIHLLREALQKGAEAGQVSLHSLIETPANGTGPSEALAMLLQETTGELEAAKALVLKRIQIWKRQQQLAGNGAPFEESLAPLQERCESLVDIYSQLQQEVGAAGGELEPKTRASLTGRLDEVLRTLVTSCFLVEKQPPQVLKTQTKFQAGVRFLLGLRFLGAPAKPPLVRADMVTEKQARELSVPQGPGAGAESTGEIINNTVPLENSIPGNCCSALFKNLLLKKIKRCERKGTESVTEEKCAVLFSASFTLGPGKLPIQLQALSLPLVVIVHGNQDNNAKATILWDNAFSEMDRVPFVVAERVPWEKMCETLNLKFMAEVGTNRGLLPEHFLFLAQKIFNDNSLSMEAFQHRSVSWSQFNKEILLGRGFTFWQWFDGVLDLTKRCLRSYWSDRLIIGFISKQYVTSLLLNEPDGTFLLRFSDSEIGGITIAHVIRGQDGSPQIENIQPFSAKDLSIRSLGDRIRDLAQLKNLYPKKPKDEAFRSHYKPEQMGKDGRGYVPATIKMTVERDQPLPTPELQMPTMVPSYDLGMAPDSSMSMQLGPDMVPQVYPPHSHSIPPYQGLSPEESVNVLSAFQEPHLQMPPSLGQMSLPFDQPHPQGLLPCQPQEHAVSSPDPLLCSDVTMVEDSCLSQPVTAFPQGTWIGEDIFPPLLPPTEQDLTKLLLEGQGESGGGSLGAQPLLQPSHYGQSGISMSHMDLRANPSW
As to the kind of experiment: Immunoblotting (Western blot) analysis of STAT6 degradation efficiency of degraders in treated cells. It counts as cell-based. The method in brief:
as §1

[3] abbreviates: KU-812 cells, read-out: DC50 S5 KU-812.
The mark [4] stands for this setting: MOLM-16 cells, class symbols, read-out: DC50 S5 MOLM-16.
[5] abbreviates: SKNO1 cells, read-out: DC50 S5 SKNO1.
[6] abbreviates: MOLM-16 cells, numeric bound, read-out: DC50 S6 MOLM-16.
Setting [7] is: MOLM-16 cells, numeric bound, read-out: DC50 S5 MOLM-16.
[8] abbreviates: L1236 cells, read-out: DC50 S6 L1236.
The mark [9] stands for this setting: MB231 cells, read-out: DC50 S6 MB231.
Setting [10] is: MOLM-16 cells, class symbols, read-out: DC50 S6 MOLM-16.

Read-outs that look alike come from different tables or passages of the source. Some results are limits rather than exact numbers.

As to `CC(C)(C)[C@H](NC(=O)c1cc2cc(C(F)(F)P(=O)(O)O)ccc2s1)C(=O)N1CCC[C@H]1C(=O)N(CCC(=O)NCCCC#Cc1cccc2c1CN(C1CCC(=O)NC1=O)C2=O)c1ccc2ccccc2c1` (stereo partly drawn) [Compound 656, ((2-(((2S)-1-((2S)-2-((3-((5-(2-(2,6-dioxopiperidin-3-yl)-1-oxoisoindolin-4-yl)pent-4-yn-1-yl)amino)-3-oxopropyl)(naphthalen-2-yl)carbamoyl)pyrrolidin-1-yl)-3,3-dimethyl-1-oxobutan-2-yl)carbamoyl)benzo[b]thiophen-5-yl)difluoromethyl)phosphonic acid], the DC50 in test [1] (setting [3]) is 100 to 1000 nM; in test [1] (setting [4]), less than 100 nM; in test [1] (setting [5]), 100 to 1000 nM; in test [2] (setting [6]), greater than 300 nM.
As for `CC(C)(C)[C@H](NC(=O)c1cc2cc(C(F)(F)P(=O)(O)O)ccc2s1)C(=O)N1CCC[C@H]1C(=O)N(CCC(=O)NCCCC#Cc1cccc2c1CN(C1CCC(=O)NC1=O)C2=O)c1ccc2sccc2c1` (stereo partly drawn) [Compound 650, ((2-(((2S)-1-((2S)-2-(benzo[b]thiophen-5-yl(3-((5-(2-(2,6-dioxopiperidin-3-yl)-1-oxoisoindolin-4-yl)pent-4-yn-1-yl)amino)-3-oxopropyl)carbamoyl)pyrrolidin-1-yl)-3,3-dimethyl-1-oxobutan-2-yl)carbamoyl)benzo[b]thiophen-5-yl)difluoromethyl)phosphonic acid], the DC50 in test [1] (setting [3]) was 100 to 1000 nM; in test [1] (setting [4]), less than 100 nM; in test [1] (setting [5]) it was 100 to 1000 nM; in test [2] (setting [6]) it was greater than 300 nM.
`CN(CCCC#Cc1cccc2c1CN(C1CCC(=O)NC1=O)C2=O)C(=O)CCN(C(=O)[C@@H]1CCCN1C(=O)[C@@H](NC(=O)c1cc2cc(C(F)(F)P(=O)(O)OCOC(=O)C(C)(C)C)ccc2s1)C(C)(C)C)c1ccc2scnc2c1` (stereo partly drawn) [Compound 676, ((((2-(((2S)-1-((2S)-2-(benzo[d]thiazol-5-yl(3-((5-(2-(2,6-dioxopiperidin-3-yl)-1-oxoisoindolin-4-yl)pent-4-yn-1-yl)(methyl)amino)-3-oxopropyl)carbamoyl)pyrrolidin-1-yl)-3,3-dimethyl-1-oxobutan-2-yl)carbamoyl)benzo[b]thiophen-5-yl)difluoromethyl)(hydroxy)phosphoryl)oxy)methyl pivalate]: the DC50 was less than 100 nM in test [1] (setting [4]) and greater than 300 nM in test [2] (setting [6]).
With `CC(C)(C)[C@H](NC(=O)c1cc2cc(C(F)(F)P(=O)(O)O)ccc2s1)C(=O)N1CCC[C@H]1C(=O)N(CCC(=O)N1CC(CC#Cc2cccc3c2CN(C2CCC(=O)NC2=O)C3=O)C1)c1ccc(Br)cc1` (stereo partly drawn) [Compound 667, ((2-(((2S)-1-((2S)-2-((4-bromophenyl)(3-(3-(3-(2-(2,6-dioxopiperidin-3-yl)-1-oxoisoindolin-4-yl)prop-2-yn-1-yl)azetidin-1-yl)-3-oxopropyl)carbamoyl)pyrrolidin-1-yl)-3,3-dimethyl-1-oxobutan-2-yl)carbamoyl)benzo[b]thiophen-5-yl)difluoromethyl)phosphonic acid], the 50% degradation concentration (DC50) in test [1] (setting [3]) is greater than 10000 nM; in test [1] (setting [7]) it was greater than 300 nM; in test [1] (setting [5]), greater than 10000 nM; in test [2] (setting [6]) it was greater than 300 nM.
Consider `CN(C(=O)[C@@H]1C[C@@H](OCC(=O)NCCCCCC#Cc2cccc3c2CN(C2CCC(=O)NC2=O)C3=O)CN1C(=O)[C@@H](NC(=O)c1cc2cc(C(F)(F)P(=O)(O)O)ccc2s1)C(C)(C)C)c1ccc(Br)cc1` (stereo partly drawn) [Compound 412, ((2-(((2S)-1-((2S,4R)-2-((4-bromophenyl)(methyl)carbamoyl)-4-(2-((7-(2-(2,6-dioxopiperidin-3-yl)-1-oxoisoindolin-4-yl)hept-6-yn-1-yl)amino)-2-oxoethoxy)pyrrolidin-1-yl)-3,3-dimethyl-1-oxobutan-2-yl)carbamoyl)benzo[b]thiophen-5-yl)difluoromethyl)phosphonic acid], for which the half-maximal degradation concentration (DC50) in test [1] (setting [5]), in test [2] (setting [8]) and in test [2] (setting [9]) was greater than 10000 nM each time.
For `CC(C)(C)[C@H](NC(=O)c1cc2cc(C(F)(F)P(=O)(O)O)ccc2s1)C(=O)N1CCC[C@H]1C(=O)N(CCC(=O)NCCCCCCCCC#Cc1cccc2c1CN(C1CCC(=O)NC1=O)C2=O)c1ccc(Br)cc1` (stereo partly drawn) [Compound 403, ((2-(((2S)-1-((2S)-2-((4-bromophenyl)(3-((10-(2-(2,6-dioxopiperidin-3-yl)-1-oxoisoindolin-4-yl)dec-9-yn-1-yl)amino)-3-oxopropyl)carbamoyl)pyrrolidin-1-yl)-3,3-dimethyl-1-oxobutan-2-yl)carbamoyl)benzo[b]thiophen-5-yl)difluoromethyl)phosphonic acid], the DC50 in test [1] (setting [3]) was greater than 10000 nM; in test [1] (setting [4]), 1000 to 10000 nM; in test [2] (setting [9]), greater than 10000 nM; in test [2] (setting [10]), greater than 10000 nM.
Take `CC(C)(C)[C@H](NC(=O)c1cc2cc(C(F)(F)P(=O)(O)O)ccc2s1)C(=O)N1CCC[C@H]1C(=O)N(CCC(=O)NCCCC#Cc1cccc2c1CN(C1CCC(=O)NC1=O)C2=O)c1ccc(-c2nccs2)cc1` (stereo partly drawn) [Compound 655, ((2-(((2S)-1-((2S)-2-((3-((5-(2-(2,6-dioxopiperidin-3-yl)-1-oxoisoindolin-4-yl)pent-4-yn-1-yl)amino)-3-oxopropyl)(4-(thiazol-2-yl)phenyl)carbamoyl)pyrrolidin-1-yl)-3,3-dimethyl-1-oxobutan-2-yl)carbamoyl)benzo[b]thiophen-5-yl)difluoromethyl)phosphonic acid]: the 50% degradation concentration (DC50) in test [1] (setting [3]) was 100 to 1000 nM; in test [1] (setting [4]) it was less than 100 nM; in test [1] (setting [5]), 100 to 1000 nM; in test [2] (setting [6]), greater than 300 nM.
For the compound `CC(C)(C)[C@H](NC(=O)c1cc2cc(C(F)(F)P(=O)(O)O)ccc2s1)C(=O)N1C[C@@H](OCCCCCC#Cc2cccc3c2CN(C2CCC(=O)NC2=O)C3=O)C[C@H]1C(=O)N1CCO[C@H](c2ccccc2)C1` (stereo partly drawn) [Compound 593, ((2-(((2S)-1-((2S,4S)-4-((7-(2-(2,6-dioxopiperidin-3-yl)-1-oxoisoindolin-4-yl)hept-6-yn-1-yl)oxy)-2-((R)-2-phenylmorpholine-4-carbonyl)pyrrolidin-1-yl)-3,3-dimethyl-1-oxobutan-2-yl)carbamoyl)benzo[b]thiophen-5-yl)difluoromethyl)phosphonic acid], the DC50 was greater than 10000 nM in test [1] (setting [4]) and less than 100 nM in test [2] (setting [10]).
`CN(C(=O)[C@@H]1C[C@@H](OCC(=O)NCCCCCCC#Cc2cccc3c2CN(C2CCC(=O)NC2=O)C3=O)CN1C(=O)[C@@H](NC(=O)c1cc2cc(C(F)(F)P(=O)(O)O)ccc2s1)C(C)(C)C)c1ccc(Br)cc1` (stereo partly drawn) [Compound 413, ((2-(((2S)-1-((2S,4R)-2-((4-bromophenyl)(methyl)carbamoyl)-4-(2-((8-(2-(2,6-dioxopiperidin-3-yl)-1-oxoisoindolin-4-yl)oct-7-yn-1-yl)amino)-2-oxoethoxy)pyrrolidin-1-yl)-3,3-dimethyl-1-oxobutan-2-yl)carbamoyl)benzo[b]thiophen-5-yl)difluoromethyl)phosphonic acid]: the DC50 in test [1] (setting [5]), in test [2] (setting [8]) and in test [2] (setting [9]) was greater than 10000 nM throughout.
Turning to `Cc1ncsc1-c1ccc([C@H](CC(=O)NCCOCCOCCOCCC(=O)N[C@@H]2C[C@@H](C(=O)Nc3ncc(-c4ccccc4)s3)N(C(=O)[C@@H](NC(=O)c3cc4cc(C(F)(F)P(=O)(O)O)ccc4s3)C(C)(C)C)C2)NC(=O)[C@@H]2C[C@@H](O)CN2C(=O)[C@@H](NC(=O)C2(F)CC2)C(C)(C)C)cc1` [Compound 582, (difluoro(2-(((S)-1-((2S,4R)-4-((S)-1-((2S,4R)-1-((S)-2-(1-fluorocyclopropane-1-carboxamido)-3,3-dimethylbutanoyl)-4-hydroxypyrrolidin-2-yl)-3-(4-(4-methylthiazol-5-yl)phenyl)-1,5-dioxo-9,12,15-trioxa-2,6-diazaoctadecan-18-amido)-2-((5-phenylthiazol-2-yl)carbamoyl)pyrrolidin-1-yl)-3,3-dimethyl-1-oxobutan-2-yl)carbamoyl)benzo[b]thiophen-5-yl)methyl)phosphonic acid], the half-maximal degradation concentration (DC50) in test [1] (setting [7]) and in test [2] (setting [6]) was greater than 300 nM each time.

The DC50 is the midpoint of the concentration-degradation curve.
